The assay has as its system SR (NPM-ALK) cells. The experiment in a line: Growth inhibition IC50 in ALCL SR cells (CCK8/WST, 72 hours). It is filed as cell-based. The note with it: SR cells, WST; Alectinib based ALK PROTAD compounds (Table 4).

The source of these data is patent US11771709B2, “ALK protein degradation agent and anti-tumor application thereof” (ShanghaiTech University, priority 2017, dated 2023).

Method: SR (NPM-ALK) and NCI-H2228 (EML4-ALK, V3) cells were purchased from ATCC. […] All Cells were cultured in RPMI1640 medium with 10% FBS and Penicillin-Streptomycin in 37° C. incubator with 5% CO2.
Cells were seeded at specific density in 96 well plates one day before treatment. […] Viable cells were measured via CCK8 reagent and IC50s were calculated via Prism Graphad. Experiments were repeated at least three times.

On to `CCc1cc2c(cc1N1CCN(C(=O)CCCCCC(=O)N[C@H](C(=O)N3C[C@H](O)C[C@H]3C(=O)NCc3ccc(-c4scnc4C)cc3)C(C)(C)C)CC1)C(C)(C)c1[nH]c3cc(C#N)ccc3c1C2=O` [SIAIS164096, (2S,4R)-1-((S)-2-(7-(4-(3-cyano-9-ethyl-6,6-dimethyl-11-oxo-6,11-dihydro-5H-benzo[b]carbazol-8-yl)piperazin-1-yl)-7-oxoheptanamido)-3,3-dimethylbutanoyl)-4-hydroxy-N-(4-(4-methylthiazol-5-yl)benzyl)pyrrolidine-2-carboxamide], for which the IC50 (as a rule, the concentration that inhibits the measured activity by half) was determined as 0.0795 µM.
For `CCc1cc2c(cc1N1CCC(N3CCN(C(=O)CNc4cccc5c4C(=O)N(C4CCC(=O)NC4=O)C5=O)CC3)CC1)C(C)(C)c1[nH]c3cc(C#N)ccc3c1C2=O` (centres unmarked) [SIAIS184194, 8-(4-(4-((2-(2,6-dioxopiperidin-3-yl)-1,3-dioxoisoindolin-4-yl)glycyl)piperazin-1-yl)piperidin-1-yl)-9-ethyl-6,6-dimethyl-11-oxo-6,11-dihydro-5H-benzo[b]carbazole-3-carbonitrile] the value was 0.0242 µM; for `CCc1cc2c(cc1N1CCC(NC(=O)CNc3cccc4c3C(=O)N(C3CCC(=O)NC3=O)C4=O)CC1)C(C)(C)c1[nH]c3cc(C#N)ccc3c1C2=O` (centres unmarked) [SIAIS219001, N-(1-(3-cyano-9-ethyl-6,6-dimethyl-11-oxo-6,11-dihydro-5H-benzo[b]carbazol-8-yl)piperidin-4-yl)-2-((2-(2,6-dioxopiperidin-3-yl)-1,3-dioxoisoindolin-4-yl)amino)acetamide], 0.0213 µM.
Regarding `CCc1cc2c(cc1N1CCC(N3CCN(C(=O)CCCNc4cccc5c4C(=O)N(C4CCC(=O)NC4=O)C5=O)CC3)CC1)C(C)(C)c1[nH]c3cc(C#N)ccc3c1C2=O` (centres unmarked) [SIAIS219003, 8-(4-(4-(4-((2-(2,6-dioxopiperidin-3-yl)-1,3-dioxoisoindolin-4-yl)amino)butanoyl)piperazin-1-yl)piperidin-1-yl)-9-ethyl-6,6-dimethyl-11-oxo-6,11-dihydro-5H-benzo[b]carbazole-3-carbonitrile], the concentration for half-maximal inhibition (IC50) was determined as 0.0218 µM.
Regarding `CCc1cc2c(cc1N1CCC(N3CCN(C(=O)CCCCCNc4cccc5c4C(=O)N(C4CCC(=O)NC4=O)C5=O)CC3)CC1)C(C)(C)c1[nH]c3cc(C#N)ccc3c1C2=O` (centres unmarked) [SIAIS219004, 8-(4-(4-(6-((2-(2,6-dioxopiperidin-3-yl)-1,3-dioxoisoindolin-4-yl)amino)hexanoyl)piperazin-1-yl)piperidin-1-yl)-9-ethyl-6,6-dimethyl-11-oxo-6,11-dihydro-5H-benzo[b]carbazole-3-carbonitrile], half-maximal inhibition (IC50) required 0.0368 µM.
For `CCc1cc2c(cc1N1CCC(NC(=O)CCCNc3cccc4c3C(=O)N(C3CCC(=O)NC3=O)C4=O)CC1)C(C)(C)c1[nH]c3cc(C#N)ccc3c1C2=O` (centres unmarked) [SIAIS219010, N-(1-(3-cyano-9-ethyl-6,6-dimethyl-11-oxo-6,11-dihydro-5H-benzo[b]carbazol-8-yl)piperidin-4-yl)-4-((2-(2,6-dioxopiperidin-3-yl)-1,3-dioxoisoindolin-4-yl)amino)butanamide] the value was 0.0311 µM.
Turning to `CCc1cc2c(cc1N1CCC(NC(=O)CCCCCNc3cccc4c3C(=O)N(C3CCC(=O)NC3=O)C4=O)CC1)C(C)(C)c1[nH]c3cc(C#N)ccc3c1C2=O` (centres unmarked) [SIAIS219011, N-(1-(3-cyano-9-ethyl-6,6-dimethyl-11-oxo-6,11-dihydro-5H-benzo[b]carbazol-8-yl)piperidin-4-yl)-6-((2-(2,6-dioxopiperidin-3-yl)-1,3-dioxoisoindolin-4-yl)amino)hexanamide], the midpoint of inhibition, the IC50, lay at 0.0499 µM.
On to `CCc1cc2c(cc1N1CCC(N3CCN(C(=O)CCCCC(=O)N[C@H](C(=O)N4C[C@H](O)C[C@H]4C(=O)NCc4ccc(-c5scnc5C)cc4)C(C)(C)C)CC3)CC1)C(C)(C)c1[nH]c3cc(C#N)ccc3c1C2=O` [SIAIS219015, (2S,4R)-1-((S)-2-(6-(4-(1-(3-cyano-9-ethyl-6,6-dimethyl-11-oxo-6,11-dihydro-5H-benzo[b]carbazol-8-yl)piperidin-4-yl)piperazin-1-yl)-6-oxohexanamido)-3,3-dimethylbutanoyl)-4-hydroxy-N-(4-(4-methylthiazol-5-yl)benzyl)pyrrolidine-2-carboxamide], for which the midpoint of inhibition, the IC50, lay at 0.11 µM. Compared with the last compound, the IC50 is about 2.2-fold higher.
For `CCc1cc2c(cc1N1CCC(N3CCN(C(=O)CCCCCCCCC(=O)N[C@H](C(=O)N4C[C@H](O)C[C@H]4C(=O)NCc4ccc(-c5scnc5C)cc4)C(C)(C)C)CC3)CC1)C(C)(C)c1[nH]c3cc(C#N)ccc3c1C2=O` [SIAIS219016, (2S,4R)-1-((S)-2-(10-(4-(1-(3-cyano-9-ethyl-6,6-dimethyl-11-oxo-6,11-dihydro-5H-benzo[b]carbazol-8-yl)piperidin-4-yl)piperazin-1-yl)-10-oxodecanamido)-3,3-dimethylbutanoyl)-4-hydroxy-N-(4-(4-methylthiazol-5-yl)benzyl)pyrrolidine-2-carboxamide] the value was 0.0808 µM; for `CCc1cc2c(cc1N1CCC(N3CCN(C(=O)CCOCCOCCNc4cccc5c4C(=O)N(C4CCC(=O)NC4=O)C5=O)CC3)CC1)C(C)(C)c1[nH]c3cc(C#N)ccc3c1C2=O` (centres unmarked) [SIAIS219018, 8-(4-(4-(3-(2-(2-((2-(2,6-dioxopiperidin-3-yl)-1,3-dioxoisoindolin-4-yl)amino)ethoxy)ethoxy)propanoyl)piperazin-1-yl)piperidin-1-yl)-9-ethyl-6,6-dimethyl-11-oxo-6,11-dihydro-5H-benzo[b]carbazole-3-carbonitrile], 0.0133 µM.
`CCc1cc2c(cc1N1CCC(N3CCN(C(=O)CCOCCOCCOCCOCCNc4cccc5c4C(=O)N(C4CCC(=O)NC4=O)C5=O)CC3)CC1)C(C)(C)c1[nH]c3cc(C#N)ccc3c1C2=O` (centres unmarked) [SIAIS219019, 8-(4-(4-(1-((2-(2,6-dioxopiperidin-3-yl)-1,3-dioxoisoindolin-4-yl)amino)-3,6,9,12-tetraoxapentadecan-15-oyl)piperazin-1-yl)piperidin-1-yl)-9-ethyl-6,6-dimethyl-11-oxo-6,11-dihydro-5H-benzo[b]carbazole-3-carbonitrile] had an IC50 of 0.0383 µM.
To `CCc1cc2c(cc1N1CCC(NC(=O)CCCCC(=O)N[C@H](C(=O)N3C[C@H](O)C[C@H]3C(=O)NCc3ccc(-c4scnc4C)cc3)C(C)(C)C)CC1)C(C)(C)c1[nH]c3cc(C#N)ccc3c1C2=O` [SIAIS219020, N1-(1-(3-cyano-9-ethyl-6,6-dimethyl-11-oxo-6,11-dihydro-5H-benzo[b]carbazol-8-yl)piperidin-4-yl)-N6-((S)-1-((2S,4R)-4-hydroxy-2-((4-(4-methylthiazol-5-yl)benzyl)carbamoyl)pyrrolidin-1-yl)-3,3-dimethyl-1-oxobutan-2-yl)adipamide] belongs 0.0303 µM.
In turn, `CCc1cc2c(cc1N1CCC(NC(=O)CCCCCCCCC(=O)N[C@H](C(=O)N3C[C@H](O)C[C@H]3C(=O)NCc3ccc(-c4scnc4C)cc3)C(C)(C)C)CC1)C(C)(C)c1[nH]c3cc(C#N)ccc3c1C2=O` [SIAIS219021, N1-(1-(3-cyano-9-ethyl-6,6-dimethyl-11-oxo-6,11-dihydro-5H-benzo[b]carbazol-8-yl)piperidin-4-yl)-N10-((S)-1-((2S,4R)-4-hydroxy-2-((4-(4-methylthiazol-5-yl)benzyl)carbamoyl)pyrrolidin-1-yl)-3,3-dimethyl-1-oxobutan-2-yl)decanediamide] registered an IC50 of 0.115 µM.
As to `CCc1cc2c(cc1N1CCC(NC(=O)CCOCCOCCNc3cccc4c3C(=O)N(C3CCC(=O)NC3=O)C4=O)CC1)C(C)(C)c1[nH]c3cc(C#N)ccc3c1C2=O` (centres unmarked) [SIAIS219023], the IC50 came to 0.0293 µM.
